Results reported in patent publication US20260232712A1, “Food for Improving Intestinal Environment” (AJINOMOTO CO., INC., priority 2023, published 2026).

Assays:
[1] = tested on: C. sporogenes; experiment: Pure culture growth test of C. sporogenes with added amino acid (OD600); type: cell-based, Clostridium sporogenes; conditions: amino acid added at final concentration 4 mM; 1/5 diluted medium; vs control; FIG. 1-2
Method: Amino acids that promote the growth of an IPA-producing bacterium C. sporogenes were narrowed down using a genome-scale metabolic model (GEM) simulation, and then evaluated in a pure culture system. The GEM simulation was performed using COBRA toolbox of MATLAB (registered trademark), and amino acids that affected the growth of C. sporogenes when 20 types of amino acids were removed one by one were selected. Then, the influence of amino acids selected by GEM analysis on the growth of C. sporogenes was investigated in a pure culture system. As C. sporogenes, an in-house strain from Ajinomoto Co., Inc. was used, and as the culture medium, ⅕ diluted enhanced Clostridium medium (Difico, #62620609) was used. Each amino acid was added to the medium to a final concentration of 4 mM, and the growth of C. sporogenes was evaluated using OD600 as an indicator. The control contained no addition of amino acid (culture medium only).

[2] = tested on: C. sporogenes; experiment: IPA production by concentrated C. sporogenes bacterial solution with Trp and/or Phe; type: cell-based, Clostridium sporogenes; conditions: 37° C., anaerobic, 24 hr; Trp 0.3 mM fixed, Phe 0.3-1.2 mM; FIG. 1-3
Method: To evaluate the influence of Trp and a combination of Trp and Phe on IPA production, pure culture experiments using C. sporogenes were performed. As C. sporogenes, in-house strain of Ajinomoto Co., Inc. was used. First, 800 μL of C. sporogenes glycerol stock was added to 40 mL of reinforced Clostridium medium and cultured under anaerobic conditions at 37° C. for 18 hr. After culturing, centrifugation was performed at 9,100×g for 5 min at 4° C., and the precipitate was collected under anaerobic conditions, washed twice with PBS, and finally suspended in 5 mL of PBS after anaerobic treatment to obtain a concentrated bacterial solution. The influence of the concentrated bacterial solution on IPA production was investigated. […] Furthermore, similar to Experimental Example 1, the influence of Phe/Trp molar ratios between 1 and 10 on IPA production in C. sporogenes was evaluated using GEM analysis.
The IPA concentration in the culture supernatant was analyzed using an LC-MS/MS mass spectrometry system (mass spectrometer: SCIEX API3200, pump: Shimadzu Corporation LC-20AD, autosampler: Shimadzu Corporation SIL-20AC, column oven: Shimadzu Corporation CTO-20AC, system controller: Shimadzu Corporation CBM-20A, degasser: Shimadzu Corporation DGU-20A, nitrogen generator: Airtech AT5NP-25CSL). […]

N[C@@H](Cc1ccccc1)C(=O)O [Phe, L-phenylalanine]
growth of C. sporogenes (OD600) [1]: promoted the growth of C. sporogenes
IPA in the culture supernatant [2]: no effect
